Consider 14 molecules from patent US4975433A, “Aminomethyl derivatives of biologically active substances and enhanced delivery thereof across topical membranes” (priority 1989, dated 1990).

A short description of data set [1]: delivery of 5-FU, previous data of Mollgaard et al. In kind it is in vitro ADME, human. As to the method:
The diffusion cell data previously reported for the delivery of 5-FU from PG (Mollgaard et al, supra), were analyzed and a flux of 7.8×10^-4 mg/cm^2.hr with a lag time of 17 hr was calculated. […] […]. […] Thus, the present study of delivery of 5-FU appears to be consistent with the observations of Mollgaard et al, supra.
. When the data for the diffusion of the best prodrug of 5-FU (1-butyryloxymethylderivative) described in Mollgaard et al, supra, were used to calculate a flux for that prodrug, a flux of 17.2×10^-4 mg/cm^2.hr was obtained. […]

The conditions of data set [2]: cited from earlier work.
The conditions of data set [3]: cited from earlier work. This is another data set of the same source.
The nature of data set [4]: delivery of theophylline, previous study of Sloan et al. As to conditions: from flux of previous study.
Data set [5] is described as follows: hydrolysis / stability of adenine and cytosine adducts followed by UV (Example 1). The data set is classed as physicochemical. Particulars: water, dilute aqueous solution, about 1×10^-4 mole/l, read-out: t1/2 of hydrolysis (converted). The source says: The methanol UV spectra of the adducts of cytosine and adenine were stable for up to 2 hr. The water UV spectrum of the mono-adduct of adenine 1b was essentially identical with adenine itself under the same conditions. […] The rates of hydrolysis of three of the adducts (1d, 1e and 2d) were followed by UV at about 1×10^-4 mole/1 by following the decrease in intensity of their respective UV max with time. Spectra were monitored until stable spectra were produced which in all cases were essentially identical with the parent purine or pyrimidine. Plots of At-At.infin. versus time were used to determine t 1/2. The hydrolyses of the adducts were also followed by ^1 H NMR spectroscopy. Solutions (DMSO-d6) of the adducts at about 30 mg/ml, were diluted with D2 O in a dropwise fashion until a 1:1 ratio of the two solvents was reached. Integrations (5 times) of the spectra were taken after each addition of D2 O. Comparison of the average of the integrations of the N--CH2 --N absorptions and the integrations of the C2 --H, C8 --H, C5 --H or C6 --H absorptions was used to quantitate the amount of decomposition.

A short description of data set [6]: lipid and aqueous solubilities of 5-FC and its derivatives. The data set is classed as physicochemical. Particulars: for solubility at 48 h: isopropyl myristate, organic solvent or mixture, read-out: Solubility, IPM.
For data set [7] the following is noted: water, equilibrated three hours, 180 min; cited from earlier work.
A further data set in a line: physchem. As to conditions: organic solvent or mixture.
Data set [8] is described as follows: lipid and aqueous solubilities of 5-IDC and its prodrugs. In kind it is physicochemical. Particulars: for Solubility, IPM / solubility at 48 h: isopropyl myristate; for solubility: pH 5.5, water, apparent; for solubility at 48 h: organic solvent or mixture, read-out: Solubility, IPM. As to the method: The approximate aqueous solubilities were determined by the addition of 100 mg of solid to 1 ml distilled water (pH 5.5). Water was added until all the solid dissolved.
The lipid solubilities of 5-iodo-2'-deoxycytidine and its N-Mannich base prodrugs were determined in isopropyl myristate. Three suspensions of the drug or prodrugs were stirred for 48 hours and then filtered. The filtrates were then diluted with either methanol, for the parent drug or dry acetonitrile, for the N-Mannich base prodrugs. The concentration of compound in solution was determined by monitoring the UV absorption at 294 nm (ε=5.79×10^3 1/mole) for 5-IDC, 333 nm (ε=2.46×10^4) for the formamidine derivative and 296 nm for the derivatives. The aqueous solubilities were obtained as described above.

Data set [9] is described as follows: flux of theophylline in PG after first application of 5-IDC or prodrug (second application). The data set is classed as in vitro ADME, hairless mice. As to conditions: for X-intercept / Flux of theophylline from PG after first application: first application in IPM; for Flux of theophylline from PG after first application: Th/PG 0.4 M, ±SD.
Procedure: A suspension of theophylline in PG (Th/PG; 0.5 ml, 0.4M) was then applied to each diffusion cell. […] This phase of the diffusion cell experiment is labelled the second application.
The slopes for each phase of the plotted lines were obtained by linear regression analysis; the slopes were then divided by the surface area of the diffusion cells (4.9 cm^2) to obtain a value for flux (J) in mg/cm^2 /h. The reported fluxes are the average flux for the three cells.
Data set [10] can be described thus: solubility of 5-iodo-2'-deoxycytidine in various vehicles. In kind it is physicochemical. Particulars: for solubility: organic solvent or mixture.
For data set [11] the following is noted: phosphate buffer, pH 7.1.
The conditions of data set [12]: skins leached 120 hours, no methanol wash.
Procedure: After this last sampling of the receptor phase (amount left in skin), the receptor phase was again changed. […] The cumulative amount of theophylline in the receptor phase was calculated as described above. This phase of the diffusion cell studies is termed the second application.
Several control studies were also performed. […] This was the baseline for the second application. […] Theophylline in PG was then applied to assess the effect of the methanol wash (used to remove the remaining donor phase from the first application) on the skin's permeability. […] The receptor phase was changed and a suspension of Th in PG was added as before.
The slopes for each phase of the plotted lines were obtained by linear regression analysis (r>0.990); the slopes were then divided by the surface area of the diffusion cells (4.9 cm^2) to obtain a value for flux (J) in mg/cm^2 /h. The reported fluxes are the average flux of the three diffusion cells.
The conditions of data set [13]: cited from earlier work. This is another data set of the same source.
The nature of data set [14]: solubilities of prodrugs and parent drugs in selected solvents (Example 8). Particulars: Solubility, suspensions sonicated for 3 hr.
Data set [15] can be described thus: hydrolysis of 5-IDC derivatives in pH 7.1 buffer. Particulars: 24°, read-out: half-life (t1/2) of hydrolysis. The data set is classed as physicochemical. On the procedure: The hydrolysis of the prodrugs in pH 7.1 buffer (0.05M,=0.15) was monitored by UV spectroscopy at 294 nm, by measuring the appearance of 5-IDC. A plot of log (At -A.infin.) versus time was linear so first-order reaction kinetics were assumed. Each hydrolysis was performed in triplicate at a constant temperature of 24.0°±0.1° and the half-lives and rates of hydrolysis were obtained using the Guggenheim method. Stock solutions of the prodrugs were made in dry acetonitrile, and 0.1 ml of the solution was added to 3 ml of buffer in a cuvette.

Values after ≈ are worked out from the molar mass of the structure shown. Values joined by “and” are separate entries in the source; they are usually repeats but may differ in a detail not shown here. Equal entries are not always repeated. Where two headings read alike, the source gives them in different places. Marks after values point to notes of the source that are not given here.

For the molecule `CCCC(=O)OCn1cc(F)c(=O)[nH]c1=O` [1-butyryloxymethylderivative], the “times better than 5-FU in delivering 5-FU” value in data set [1] (from literature flux) was 2.2 times. Also, in [2] (not told), the flux was 17.2×10^-4 mg/cm^2.hr.

As for `Cn1c(=O)c2c(ncn2CO)n(C)c1=O` [7-(hydroxymethyl)theophylline], the flux in data set [3] (not told) was 11.1×10^-2 mg/cm^2.hr. Also, the “times more effective than theophylline in delivering theophylline” value in data set [4] is “about 6.5 times”.

With `CCCC(=O)OCn1cnc2c1c(=O)n(C)c(=O)n2C` [7-butyryloxymethyl)theophylline], the flux in data set [3] (previous study (Sloan et al), IPM) was 7.25×10^-2 mg/cm^2.hr. Moreover, the “times more effective than theophylline in delivering theophylline” value in data set [4] is 4.2 times.

`c1nc(NCN2CCOCC2)c2ncn(CN3CCOCC3)c2n1` [Compound 1d, Bis-N^6,9-(4'-morpholinyl)methyladenine]: the half-life at 100 µM in [5] is approximately 30 min.

For the molecule `c1nc(NCN2CCCCC2)c2ncn(CN3CCCCC3)c2n1` [Compound 1e, Bis-N^6,9-(1'-piperidinyl)methyladenine], the half-life at 100 µM in [5] is approximately 5 min.

Consider `O=c1nc(NCN2CCOCC2)ccn1CN1CCOCC1` [Compound 2d, Bis-N^4,1-(4'-morpholinyl)methylcytosine], for which the half-life at 100 µM in [5] was approximately 180 min.

The solubility is how much of the substance goes into solution per volume. Regarding `Nc1nc(=O)[nH]cc1F` [Compound 5-FC, 5-fluorocytosine], the solubility in data set [6] (distilled water (pH 5.5), approximate, decomposing) is 7000 µg/mL and 50000 µM; in the data set “physchem” (1-octanol), 0.42 mg/mL (≈ 3.25 mM); in “physchem” (dmf), 3.52 mg/mL (≈ 27.3 mM); in the data set “physchem” (ethylene glycol), 20 mg/mL (≈ 155 mM); in “physchem” (ethylene glycol:formamide (1:1)), 17.5 mg/mL (≈ 135 mM); in “physchem” (ethylene glycol:formamide (4:1)), 17.9 mg/mL (≈ 139 mM). Further, the solubility in “physchem” (formamide) is 13.7 mg/mL (≈ 106 mM); in “physchem” (ipm), 0.0045 mg/mL (≈ 0.0349 mM); in “physchem” (pg), 10.8 mg/mL (≈ 83.7 mM). Besides, the solubility at 48 h is 0.039 mM in data set [6] and 0.005 mg/mL in data set [6] (±SD). Also, the “aqueous solubility, literature value” in data set [7] is 120 mM (≈ 15.5 mg/mL).

Regarding `Nc1nc(=O)n([C@H]2C[C@H](O)[C@@H](CO)O2)cc1I` [Compound 5-IDC, 5-iodo-2'-deoxycytidine], the “Solubility, IPM” value in data set [8] is recorded as 0 M(× ^5); in data set [8] (±SD) it was 0 mg/ml(× 10^2). Also, the solubility in data set [8] is < 1000 µg/mL and < 2800 µM; in data set [10] (1-octanol, read-out: Solubility of 5-IDC, mole fraction), 0.96 mM; in data set [10] (1-propanol, read-out: Solubility of 5-IDC, mole fraction), 6.09 mM; in data set [10] (eg, read-out: Solubility of 5-IDC, mole fraction), 89.2 mM; in data set [10] (ethylene glycol, EG, ±SD, read-out: Solubility of 5-IDC) it was 31.5 mg/mL; in data set [10] (formamide, For, ±SD, read-out: Solubility of 5-IDC), 56.9 mg/mL. The solubility was 161 mM in data set [10] (formamide, read-out: Solubility of 5-IDC, mole fraction); 0.34 mg/mL in [10] (1-octanol, ±SD, read-out: Solubility of 5-IDC); 2.15 mg/mL in data set [10] (1-propanol, ±SD, read-out: Solubility of 5-IDC); 55.7 mM in data set [10] (pg, read-out: Solubility of 5-IDC, mole fraction); 19.7 mg/mL in data set [10] (propylene glycol, PG, ±SD, read-out: Solubility of 5-IDC). Further, the “increase of flux of theophylline from PG” value in data set [9] (after 5-IDC) was 1.3 times. Further, the X-intercept in data set [9] is given as 0.6 h. For the same molecule, the “Flux of theophylline from PG after first application” value in data set [9] is given as 246 (17) mg/cm^2 /h × 10^3. Moreover, the “Solubility of 5-IDC, mole fraction” value in [10] (IPM) is 0 mole fraction (× 10^3). Besides, for the setting “IPM”, the “X-intercept, initial phase” value was 5.0 h. The “X-intercept, steady-state” value (IPM) was found to be 14.0 h. Also, for the setting “IPM”, the “duration of initial phase” value turned out to be 19 h. Besides, the “duration of steady-state delivery” value (IPM) came out at 11 h. In addition, the “conversion of 5-IDC to 5-IDU” value (diffusion cells, HPLC) is “no conversion of 5-IDC to 5IDU was detected”.

Turning to `CCN(CC)CNc1ccn(CN(CC)CC)c(=O)n1` [Cytosine (Et), Bis-N^4,1-(diethylamino)methylcytosine], the “Half-life of hydrolysis, cytosine derivatives” value in [11] was 0.26(0.00) min.

For the molecule `Cn1c(=O)c2[nH]cnc2n(C)c1=O` [I, Theophylline], the “flux for Th/PG, baseline” value in data set [12] was 1.41±0.09×10^-3 mg/cm2 /h. Moreover, the flux in [3] (not told) is on record as 1.72±0.13×10^-2 mg/cm^2.hr.

Broadly, the pKa is the pH at which an ionisable group is half protonated. With `O=c1[nH]cc(F)c(=O)[nH]1` [VII, 5-Fluorouracil], in data set [1] (PG, 24 hr, 4.9 cm^2, calculated from literature flux and lag), the “theoretical 24 hr value for 5-FU diffused” value is recorded as 0.015 mg. Further, the lag time in [2] (PG, calculated from literature data (Mollgaard et al)) was 17 h. Besides, in [13], the pKa is 13.0. The solubility was 0.0044 mg/mL (≈ 0.0338 mM) in data set [14] (isopropyl myristate, organic solvent or mixture, IPM); 15.1 mg/mL (≈ 116 mM) in data set [14] (propylene glycol, organic solvent or mixture, PG); 26.2 mg/mL (≈ 201 mM) in data set [14] (water).

As for `O=c1nc(NCN2CCOCC2)c(I)cn1[C@H]1C[C@H](O)[C@@H](CO)O1` [XXIIIb, N^4-(1"-morpholinyl)methyl-5-iodo-2'-deoxycytidine hydrate], the half-life in [15] came out at 12.8 ± 0.6 min. For the same molecule, in [8], the solubility at 48 h came to 0.029 mM; the solubility was 20000 µg/mL and 44000 µM. Further, in data set [8] (±SD), the solubility at 48 h was 0.013 mg/mL.

For `O=c1nc(NCN2CCCCC2)c(I)cn1[C@H]1C[C@H](O)[C@@H](CO)O1` [XXIIa, N^4-(1"-piperidinyl)methyl-5-iodo-2'-deoxycytidine hydrate], in data set [8], the solubility at 48 h is 0.062 mM; the solubility was 100000 µg/mL and 222000 µM. Moreover, the solubility at 48 h in [8] (±SD) was found to be 0.028 mg/mL. Moreover, in data set [9], the X-intercept was determined as 1.0 h and the “Flux of theophylline from PG after first application” value is reported as 192 (38) mg/cm^2 /h × 10^3. Moreover, the “effect on flux of theophylline” value in data set [9] (vs IPM) is “Not significantly different from flux after first application”.

Regarding `O=c1nc(NCN2CCCCC2)c(I)cn1[C@H]1C[C@H](O)[C@@H](CO)O1` [XXIIb, N^4-(1"-piperidinyl)methyl-5-iodo-2'-deoxycytidine hydrate], in [15], the half-life came out at 0.89 ± 0.06 min. In addition, the “Solubility, IPM” value in data set [8] (±SD, 2880 min, hydrate) was 1.6(0.5) mg/ml(× 10^2).
